Test results: patent publication US9745297B2, “Compounds as modulators of RORC” (Boehringer Ingelheim International GmbH, priority 2013, dated 2017)

Biological target: T1, RORγt (Homo sapiens, UniProt P51449)
T1 construct: expressed in transfected cells
T1 sequence (P51449 269-508 limits assumed): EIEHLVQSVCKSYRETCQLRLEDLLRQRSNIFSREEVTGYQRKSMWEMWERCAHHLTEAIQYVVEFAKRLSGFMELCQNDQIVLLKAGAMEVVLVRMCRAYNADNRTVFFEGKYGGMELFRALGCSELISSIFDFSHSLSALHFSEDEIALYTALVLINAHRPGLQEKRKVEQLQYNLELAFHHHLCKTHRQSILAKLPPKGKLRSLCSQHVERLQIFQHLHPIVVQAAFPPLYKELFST
Test: RGA Assay: nuclear receptor transactivation assay, RORγt transactivation of a luciferase reporter
Format: cell-based
Conditions: transiently transfected HEK 293 cells (pGL4.3 luc2P/GAL4UAS, pBIND Gal4DBD hRORC LBD), 20-24 hours incubation, luciferase readout
Description: A nuclear receptor transactivation assay was performed to quantitate the ability of test compounds to inhibit RORγt transactivation of a luciferase reporter. A similar assay is described in: Khan et al., Bioorganic & Medicinal Chemistry Letters 23 (2013), 532-536. The system uses transiently transfected HEK 293 cells cotransfected with two plasmids (pGL4.3, luc2P/GAL4UAS/Hygro, and pBIND, Ga14DBD hRORC LBD1-3). The positive control is co-transiently transfected with both plasmids, and the negative control contains the pGL4.3 promoter sequence. Assays were assembled in 384 well plates where transiently transfected cells and test compound at varying concentrations were incubated for 20-24 hours. The next day, assays plates are taken out and equillibrated at RT for 20-30 minutes. Bright-Glo™ Luciferase Assay System is used to detect Luciferase production. After addition of Bright GLO detection reagent, the plates were incubated at RT for 20 minutes. The plates were read on an Envision plate reader to measure luminescence signal. The RLU signal is converted to POC relative to control and blank wells.
Compound Dilution Buffer:
Bright Glo Luciferase Assay System: Promega #E2620
Thaw lysis buffer provided in kit, add 100 mL lysis buffer to substrate powder.

| Compound | IC50 [µM] |
| --- | --- |
| CNS(=O)(=O)c1ccc(CNC(=O)N2CC3(CCCC3)c3nc(-c4ccc(F)cc4C)ccc32)cc1 [Example 1] | 1.6 |
| Cc1cc(O)ccc1-c1ccc2c(n1)C(C)(C)CN2C(=O)NCc1ccc(C#N)cc1 [Example 2] | > 30 |
| COc1cc(C)c(-c2ccc3c(n2)C(C)(C)CN3C(=O)NCc2ccc(C#N)cc2)cn1 [Example 3] | > 30 |
| COc1ccc(-c2ccc3c(n2)C(C)(C)CN3C(=O)NCc2ccc(C#N)cc2)c(C(F)(F)F)c1 [Example 4] | 12 |
| Cc1nc(N2CCOCC2)ccc1-c1ccc2c(n1)C1(CCCC1)CN2C(=O)NCc1ccc(S(C)(=O)=O)cc1 [Example 5] | > 30 |
| COC1CCCN(c2ccc(-c3ccc4c(n3)C3(CCCC3)CN4C(=O)NCc3ccc(S(C)(=O)=O)cc3)c(C)n2)C1 (stereo not drawn) [Example 6] | 24 |
| COC1CCN(c2ccc(-c3ccc4c(n3)C3(CCCC3)CN4C(=O)NCc3ccc(S(C)(=O)=O)cc3)c(C)n2)CC1 [Example 7] | > 30 |
| CNC(=O)c1ccc(-c2ccc3c(n2)C2(CCCC2)CN3C(=O)NCc2ccc(S(C)(=O)=O)cc2)c(C)c1 [Example 8] | > 30 |
| CCNC(=O)c1ccc(-c2ccc3c(n2)C2(CCCC2)CN3C(=O)NCc2ccc(S(C)(=O)=O)cc2)c(C)c1 [Example 9] | 4.3 |
| CCS(=O)(=O)c1ccc(CNC(=O)N2CC3(CCCC3)c3nc(-c4ccc(C#N)cc4C)ccc32)cc1 [Example 10] | 11 |
| CCS(=O)(=O)c1ccc(CNC(=O)N2CC3(CCCC3)c3nc(-c4ccc(O)cc4C(F)(F)F)ccc32)cc1 [Example 11] | 0.11 |
| CCS(=O)(=O)c1ccc(CNC(=O)N2CC3(CCCC3)c3nc(-c4ccc(OC)cc4C(F)(F)F)ccc32)cc1 [Example 12] | 0.48 |
| CCS(=O)(=O)c1ccc(CNC(=O)N2CC3(CCCC3)c3nc(-c4cnc(OC)cc4C)ccc32)cc1 [Example 13] | 5.2 |
| CCS(=O)(=O)c1ccc(CNC(=O)N2CC3(CCCC3)c3nc(-c4ccc(F)cc4C)ccc32)cc1 [Example 14] | 3.4 |
| CCS(=O)(=O)c1ccc(CNC(=O)N2CC3(CCCC3)c3nc(-c4ccc(O)cc4C)ccc32)cc1 [Example 15] | 0.48 |
| CC1(C)CN(C(=O)NCc2ccc(S(C)(=O)=O)cc2)c2ccc(Br)nc21 [Example 16] | > 30 |
| CNS(=O)(=O)c1ccc(CNC(=O)N2CC(C)(C)c3nc(Br)ccc32)cc1 [Example 17] | > 30 |
| COc1ccc(-c2ccc3c(n2)C(C)(C)CN3C(=O)NCc2ccc(S(C)(=O)=O)cc2)c(C(F)(F)F)c1 [Example 18] | 3.4 |
| COc1cc(C)c(-c2ccc3c(n2)C(C)(C)CN3C(=O)NCc2ccc(S(C)(=O)=O)cc2)cn1 [Example 19] | 10 |
| CC(C)c1ncncc1-c1ccc2c(n1)C(C)(C)CN2C(=O)NCc1ccc(S(C)(=O)=O)cc1 [Example 20] | 19 |
| Cc1cc(O)ccc1-c1ccc2c(n1)C(C)(C)CN2C(=O)NCc1ccc(S(C)(=O)=O)cc1 [Example 21] | 12 |

| Compound | IC50 [µM] |
| --- | --- |
| Cc1cc(F)ccc1-c1ccc2c(n1)C(C)(C)CN2C(=O)NCc1ccc(S(C)(=O)=O)cc1 [Example 22] | > 30 |
| CNS(=O)(=O)c1ccc(CNC(=O)N2CC(C)(C)c3nc(-c4ccc(OC)cc4C(F)(F)F)ccc32)cc1 [Example 23] | 1.8 |
| CCS(=O)(=O)c1ccc(CNC(=O)N2CC3(CCCC3)c3nc(-c4c(C)ncnc4C)ccc32)cc1 [Example 24] | 5.9 |
| CCS(=O)(=O)c1ccc(CNC(=O)N2CC3(CCCC3)c3nc(-c4cncnc4C(C)C)ccc32)cc1 [Example 25] | 1.2 |
| CCS(=O)(=O)c1ccc(CNC(=O)N2CC3(CCCC3)c3nc(-c4c(OC)ncnc4C4CC4)ccc32)cc1 [Example 26] | 0.35 |
| CCS(=O)(=O)c1ccc(CNC(=O)N2CC3(CCCC3)c3nc(-c4sc(OC)nc4C)ccc32)cc1 [Example 27] | 8 |
| CCS(=O)(=O)c1ccc(CNC(=O)N2CC3(CCCC3)c3nc(-c4c(C)nn(CCN(C)C)c4C)ccc32)cc1 [Example 28] | > 30 |
| CCS(=O)(=O)c1ccc(CNC(=O)N2CC3(CCCC3)c3nc(-c4c(C(C)C)n[nH]c4C)ccc32)cc1 [Example 29] | 1.7 |
| CCS(=O)(=O)c1ccc(CNC(=O)N2CC3(CCCC3)c3nc(-c4c(C)n[nH]c4C)ccc32)cc1 [Example 31] | > 30 |
| CCS(=O)(=O)c1ccc(CNC(=O)N2CC3(CCCC3)c3nc(-c4sc(N)nc4C(F)(F)F)ccc32)cc1 [Example 32] | 17 |
| CCS(=O)(=O)c1ccc(CNC(=O)N2CC3(CCCC3)c3nc(-c4cnc(N(C)C)nc4C(F)(F)F)ccc32)cc1 [Example 33] | 1.2 |
| COCCOc1cc(C#N)ccc1CNC(=O)N1CC2(CCCC2)c2nc(-c3cncnc3C(C)C)ccc21 [Example 34] | 11 |
| CCS(=O)(=O)c1ccc(CNC(=O)N2CC3(CCCC3)c3nc(-c4cncnc4C(F)(F)F)ccc32)cc1 [Example 35] | 2.1 |
| CCS(=O)(=O)c1ccc(CNC(=O)N2CC3(CCCC3)c3nc(-c4c(C)nn(C)c4C)ccc32)cc1 [Example 36] | 16 |
| CCS(=O)(=O)c1ccc(CNC(=O)N2CC3(CCCC3)c3nc(-c4ncc(C)nc4C)ccc32)cc1 [Example 37] | > 30 |
| CCS(=O)(=O)c1ccc(CNC(=O)N2CC3(CCCC3)c3nc(-c4ncc(C(F)(F)F)cn4)ccc32)cc1 [Example 38] | > 30 |
| CCS(=O)(=O)c1ccc(CNC(=O)N2CC3(CCCC3)c3nc(-c4nnccc4C(F)(F)F)ccc32)cc1 [Example 39] | > 30 |
| CCS(=O)(=O)c1ccc(CNC(=O)N2CC3(CCCC3)c3nc(-c4ncc(N(C)C)nc4C4CC4)ccc32)cc1 [Example 40] | 1.6 |
| CCS(=O)(=O)c1ccc(CNC(=O)N2CC3(CCCC3)c3nc(-c4nc(C)cnc4C)ccc32)cc1 [Example 41] | > 30 |
| CNS(=O)(=O)c1ccc(CNC(=O)N2CC(C)(C)c3nc(-c4ccc(F)cc4C)ccc32)cc1 [Example 42] | 10 |
| CNS(=O)(=O)c1ccc(CNC(=O)N2CC(C)(C)c3nc(-c4ccc(O)cc4C)ccc32)cc1 [Example 43] | 8.5 |

| Compound | IC50 [µM] |
| --- | --- |
| CNS(=O)(=O)c1ccc(CNC(=O)N2CC(C)(C)c3nc(-c4cnc(OC)cc4C)ccc32)cc1 [Example 44] | 18 |
| CNS(=O)(=O)c1ccc(CNC(=O)N2CC(C)(C)c3nc(-c4cncnc4C(C)C)ccc32)cc1 [Example 45] | 9.1 |
| COc1ccc(-c2ccc3c(n2)C2(CCCC2)CN3C(=O)NCc2ccc(C#N)cc2)c(C(F)(F)F)c1 [Example 46] | 4.1 |
| COc1cc(C)c(-c2ccc3c(n2)C2(CCCC2)CN3C(=O)NCc2ccc(C#N)cc2)cn1 [Example 47] | 15 |
| CC1(C)CN(C(=O)NCc2ccc(S(C)(=O)=O)cc2)c2ccc(Oc3ccc(F)c(OC(F)(F)F)c3)nc21 [Example 48] | 6.6 |
| CNS(=O)(=O)c1ccc(CNC(=O)N2CC(C)(C)c3nc(Oc4ccc(F)c(OC(F)(F)F)c4)ccc32)cc1 [Example 49] | 4.1 |
| Cc1cc(F)ccc1-c1ccc2c(n1)C1(CCCC1)CN2C(=O)NCc1ccc(S(C)(=O)=O)cc1 [Example 50] | 8.6 |
| CNS(=O)(=O)c1ccc(CNC(=O)N2CC3(CCCC3)c3nc(-c4ccc(OC)cc4C(F)(F)F)ccc32)cc1 [Example 51] | 0.71 |
| COc1ccc(-c2ccc3c(n2)C2(CCCC2)CN3C(=O)NCc2ccc(S(C)(=O)=O)cc2)c(C(F)(F)F)c1 [Example 52] | 0.93 |
| Cc1cc(O)ccc1-c1ccc2c(n1)C1(CCCC1)CN2C(=O)NCc1ccc(S(C)(=O)=O)cc1 [Example 54] | 1.4 |
| CNS(=O)(=O)c1ccc(CNC(=O)N2CC3(CCCC3)c3nc(-c4cncnc4C(C)C)ccc32)cc1 [Example 55] | 1.1 |
| CC(C)c1ncncc1-c1ccc2c(n1)C1(CCCC1)CN2C(=O)NCc1ccc(S(C)(=O)=O)cc1 [Example 56] | 1.6 |
| CNS(=O)(=O)c1ccc(CNC(=O)N2CC3(CCCC3)c3nc(-c4cnc(OC)cc4C)ccc32)cc1 [Example 57] | 5.2 |
| COc1cc(C)c(-c2ccc3c(n2)C2(CCCC2)CN3C(=O)NCc2ccc(S(C)(=O)=O)cc2)cn1 [Example 58] | 8 |
| CS(=O)(=O)c1ccc(CNC(=O)N2CC3(CCCC3)c3nc(Oc4ccc(C(F)(F)F)nc4)ccc32)cc1 [Example 59] | > 30 |
| Cc1cc(C)c(Oc2ccc3c(n2)C2(CCCC2)CN3C(=O)NCc2ccc(S(C)(=O)=O)cc2)cn1 [Example 60] | 8.5 |
| CNS(=O)(=O)c1ccc(CNC(=O)N2CC3(CCCC3)c3nc(Oc4cnc(C)cc4C)ccc32)cc1 [Example 61] | 7.6 |
| CS(=O)(=O)c1ccc(CNC(=O)N2CC3(CCCC3)c3nc(Cl)ccc32)cc1 [Example 62] | > 30 |
| CCS(=O)(=O)c1ccc(CNC(=O)N2CC3(CCCC3)c3nc(-c4cn5ccnc5cc4C)ccc32)cc1 [Example 63] | > 30 |
| CCS(=O)(=O)c1ccc(CNC(=O)N2CC3(CCCC3)c3nc(-c4cnc(C#N)nc4C4CC4)ccc32)cc1 [Example 64] | 16 |
| CS(=O)(=O)c1ccc(CNC(=O)N2CC3(CCCC3)c3nc(-c4cnc(C#N)nc4C4CC4)ccc32)cc1 [Example 65] | 18 |
